We go through one compound from ChEMBL document CHEMBL1130494, “Design and synthesis of a targeted set of aromatic amino acid derivatives for identification of new lead compounds” (Bioorg Med Chem Lett, 1997).

Usually Ki stands for a measure of affinity in units of concentration, obtained from inhibition or displacement. The IC50 is the concentration at which inhibition is half-maximal. A high value points to weaker potency in that assay.

In assay [1] the target is Neuromedin-B receptor (Homo sapiens, UniProt P28336). Briefly: Binding affinity for human neuromedin B(hNMB) receptor expressed in CHO cells. The class given is cell-based.
Neuromedin-B receptor, sequence (P28336 whole entry): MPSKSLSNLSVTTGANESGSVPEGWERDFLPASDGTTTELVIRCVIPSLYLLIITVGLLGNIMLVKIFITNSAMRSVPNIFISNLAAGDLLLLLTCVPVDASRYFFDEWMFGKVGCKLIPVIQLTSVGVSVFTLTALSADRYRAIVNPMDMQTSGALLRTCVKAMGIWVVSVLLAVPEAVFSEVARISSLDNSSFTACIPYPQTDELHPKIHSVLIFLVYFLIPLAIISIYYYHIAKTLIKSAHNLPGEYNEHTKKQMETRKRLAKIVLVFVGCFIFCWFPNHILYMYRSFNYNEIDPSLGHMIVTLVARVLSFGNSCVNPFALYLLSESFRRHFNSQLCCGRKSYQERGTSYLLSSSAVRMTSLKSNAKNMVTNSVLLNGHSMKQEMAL
The target in assay [2] is T1, Cholecystokinin receptor type A (Rattus norvegicus, UniProt P30551).
T1 sequence (P30551 whole entry): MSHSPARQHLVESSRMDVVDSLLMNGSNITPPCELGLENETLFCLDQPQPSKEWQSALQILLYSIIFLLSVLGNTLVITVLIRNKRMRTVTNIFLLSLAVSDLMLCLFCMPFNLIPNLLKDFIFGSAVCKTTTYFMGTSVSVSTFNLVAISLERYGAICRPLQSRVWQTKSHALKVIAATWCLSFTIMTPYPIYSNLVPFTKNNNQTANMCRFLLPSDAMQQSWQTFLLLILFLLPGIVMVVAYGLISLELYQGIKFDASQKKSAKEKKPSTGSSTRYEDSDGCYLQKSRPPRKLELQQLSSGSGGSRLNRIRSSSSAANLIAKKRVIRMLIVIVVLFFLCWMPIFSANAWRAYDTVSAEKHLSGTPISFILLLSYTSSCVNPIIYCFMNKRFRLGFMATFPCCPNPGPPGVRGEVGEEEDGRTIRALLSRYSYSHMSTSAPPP
Briefly: Concentration required for binding affinity to neuropeptide (CCK-A) receptor in rat pancrea.

In turn, `O=C(N[C@@H](Cc1c[nH]c2ccccc12)C(=O)NCCc1c[nH]c2ccccc12)OCc1ccccc1` gave a Ki in assay [1] of 2800 nM. In assay [2], this compound came in with an IC50 of 450 nM.
